PubChem BioAssay AID1845205 (Molecular Pharmacology Branch, DTP, NCI, 2023)

Tested on: MPNST multicellular tumor spheroids, viability % test/control
Test: Anticancer human tumor MPNST cell line growth inhibition;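 further: spheroids exposed to agents for seven days after three days of growth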;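 on viability, T/C: luminescence signal used as surrogate for viable cell amount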
Conditions: for IC50: curve of first compound; for viability, T/C: stronger effect = lower value
Text: Multicellular complex tumor spheroid response to DNA repair inhibitors in combination with DNA-damaging drugs
This study explores the anticancer activities of DNA-damaging drugs and inhibitors of DNA damage repair, both as single agents and in combinations. Complex tumor spheroids comprised of malignant cells, endothelial cells and mesenchymal stem cells served as an in vitro model for human solid tumors. This model system incorporates physiologically relevant features and patient-derived or established malignant cell lines with clinically relevant genetic alterations from many tumor types. Twenty-six patient-derived or established malignant cell lines were evaluated representing sarcoma, melanoma, small cell lung cancer (SCLC), non-small cell lung cancer (NSCLC), as well as bladder, ovarian and pancreatic cancers. The concentration ranges selected for each drug and investigational agent were based upon clinically achievable concentrations if the clinical Cmax of the agent was known.
Compounds. The drugs and compounds olaparib (NSC753686), talazoparib (NSC767125), berzosertib (NSC777718), elimusertib (NSC800525), nedisertib (NSC802822), VX-984 (NSC792969), AZD-1390 (NSC803789), temozolomide (NSC362856), topotecan (NSC609699), trabectedin (NSC813783), staurosporine (NSC755774), and gemcitabine (NSC613327) were obtained from the National Cancer Institute (NCI) Developmental Therapeutics Program Chemical Repository. The FDA-approved anticancer drug set is available from the Developmental Therapeutics Program at https://dtp.cancer.gov/organization/dscb/obtaining/available_plates.htm. […] The stock solutions were prepared in dimethyl sulfoxide (DMSO, Sigma-Aldrich, St. Louis, MO, cat. D2650) at 400-fold the tested concentration and stored at -70 degrees C. Prior to their use, the stock solutions were diluted in fresh medium and the final DMSO concentration in the assay was 0.25% (v/v). All drugs and investigational agents were tested over a range starting from a high concentration at or near the clinical Cmax and decreasing in half-log increments. If the clinical Cmax for an agent had not been determined, the highest concentration tested was 10 microM.
Cell Lines. The patient-derived cancer cell (PDC) lines: 156681-154-R-J1-PDC, 283228-195-R-J1-PDC, 287954-098-R-J1-PDC, 292921-168-R-J2-PDC, 349418-098-R-PDC, 425362-245-T-J1-PDC, 556581-035-R-J1-PDC, and BL0293-F563-PDC were received from the NCI Patient-Derived Models Repository (PDMR, https://pdmr.cancer.gov). The established cell lines HS-SY-2 (RRID:CVCL_8719), MPNST, and SYO-1 (RRID:CVCL_7146) were obtained from the Sloan Kettering Institute. The alveolar soft parts sarcoma cell line ASPS-1 (RRID:CVCL_S738) was established at the NCI and grown from internal seed stocks. The following established cell lines were purchased from the American Type Culture Collection (ATCC, Manassas, VA): G-401 (ATCC, cat. CRL-1441, RRID:CVCL_0270), SW982 (ATCC, cat. HTB-93, RRID:CVCL_1734), VA-ES-BJ (ATCC, cat. CRL-2138, RRID:CVCL_1785), NCI-H719 (ATCC, cat. CRL-5837, RRID:CVCL_1582), NCI-H196 (ATCC, cat. CRL-5823, RRID:CVCL_1509), NCI-H841 (ATCC, cat. CRL-5845, RRID:CVCL_1595), NCI-H1618 (ATCC, cat. CRL-5879, RRID:CVCL_1480), NCI-H1876 (ATCC, cat. CRL-5902, RRID:CVCL_1503), DMS 114 (ATCC, cat. CRL-2066; RRID:CVCL_1174), NCI-H211 (ATCC, cat. CRL-5824; RRID:CVCL_1529), and SW 1271 (ATCC, cat. CRL-2177, RRID:CVCL_1716). The small cell lung cancer cell line COR-L88 was purchased from Sigma-Aldrich (cat. 92031917-1VL, RRID:CVCL_1141). The non-small cell lung cancer cell lines NCI-H226 (RRID:CVCL_1544) and NCI-H322M (RRID:CVCL_1557) were established at the NCI and grown from internal seed stocks. Pooled donor human umbilical vein endothelial cells (HUVEC, Lonza, cat. CC-2519) and human mesenchymal stem cells (hMSC, Lonza, cat. PT-2501) were purchased from Lonza (Walkersville, MD).
Cell Culture. All cells were maintained in an incubator at 37 degrees C and 5% CO2 with 95% humidity. […]

SMILES: COc1ccc([C@@H](O)c2cc(-c3ncnc4cc(N5CCOCC5)ccc34)c(F)cc2Cl)nn1 + Cn1nnc2c(C(N)=O)ncn2c1=O
- IC50 (second compound 1 µM): 1.65 µM
- IC50 (second compound 3.16 µM): 1.51 µM
- IC50 (second compound 10 µM): 1.82 µM
- IC50 (second compound 31.6 µM): 2.07 µM
- IC50 (second compound 100 µM): 1.58 µM
- viability, T/C (second compound 1 µM, first compound 0.0316 µM): 93.3%
- viability, T/C (second compound 1 µM, first compound 0.1 µM): 90.2%
- viability, T/C (second compound 1 µM, first compound 0.316 µM): 73.2%
- viability, T/C (second compound 1 µM, first compound 1 µM): 59%
- viability, T/C (second compound 1 µM, first compound 3.16 µM): 39.5%
- viability, T/C (second compound 1 µM, first compound 10 µM): 23%
- viability, T/C (second compound 3.16 µM, first compound 0.0316 µM): 76.4%
- viability, T/C (second compound 3.16 µM, first compound 0.1 µM): 99.1%
- viability, T/C (second compound 3.16 µM, first compound 0.316 µM): 80%
- viability, T/C (second compound 3.16 µM, first compound 1 µM): 57.7%
- viability, T/C (second compound 3.16 µM, first compound 3.16 µM): 35.9%
- viability, T/C (second compound 3.16 µM, first compound 10 µM): 23.4%
- viability, T/C (second compound 10 µM, first compound 0.0316 µM): 86.8%
- viability, T/C (second compound 10 µM, first compound 0.1 µM): 74.9%
- viability, T/C (second compound 10 µM, first compound 0.316 µM): 73%
- viability, T/C (second compound 10 µM, first compound 1 µM): 65.5%
- viability, T/C (second compound 10 µM, first compound 3.16 µM): 36.6%
- viability, T/C (second compound 10 µM, first compound 10 µM): 24.2%
- viability, T/C (second compound 31.6 µM, first compound 0.0316 µM): 81.2%
- viability, T/C (second compound 31.6 µM, first compound 0.1 µM): 72.8%
- viability, T/C (second compound 31.6 µM, first compound 0.316 µM): 75.2%
- viability, T/C (second compound 31.6 µM, first compound 1 µM): 66.5%
- viability, T/C (second compound 31.6 µM, first compound 3.16 µM): 40.4%
- viability, T/C (second compound 31.6 µM, first compound 10 µM): 26.4%
- viability, T/C (second compound 100 µM, first compound 0.0316 µM): 76.3%
- viability, T/C (second compound 100 µM, first compound 0.1 µM): 90.8%
- viability, T/C (second compound 100 µM, first compound 0.316 µM): 68.4%
- viability, T/C (second compound 100 µM, first compound 1 µM): 57.7%
- viability, T/C (second compound 100 µM, first compound 3.16 µM): 39.7%
- viability, T/C (second compound 100 µM, first compound 10 µM): 25.6%

SMILES: COc1cc(C)[nH]c(=O)c1CN1CCc2c(Cl)cc(C(OC)C3COC3)c(Cl)c2C1=O (stereo not given) + CC[C@@]1(O)C(=O)OCc2c1cc1n(c2=O)Cc2cc3c(CN(C)C)c(O)ccc3nc2-1
- IC50 (second compound 0.003 µM): > 10 µM
- IC50 (second compound 0.00949 µM): > 10 µM
- IC50 (second compound 0.03 µM): < 0.0316 µM
- IC50 (second compound 0.0949 µM): < 0.0316 µM
- IC50 (second compound 0.3 µM): < 0.0316 µM
- viability, T/C (second compound 0.003 µM, first compound 0.0316 µM): 92.6%
- viability, T/C (second compound 0.003 µM, first compound 0.1 µM): 95.7%
- viability, T/C (second compound 0.003 µM, first compound 0.316 µM): 91.3%
- viability, T/C (second compound 0.003 µM, first compound 1 µM): 103%
- viability, T/C (second compound 0.003 µM, first compound 3.16 µM): 93.6%
- viability, T/C (second compound 0.003 µM, first compound 10 µM): 95.5%
- viability, T/C (second compound 0.00949 µM, first compound 0.0316 µM): 96.6%
- viability, T/C (second compound 0.00949 µM, first compound 0.1 µM): 88.5%
- viability, T/C (second compound 0.00949 µM, first compound 0.316 µM): 96.4%
- viability, T/C (second compound 0.00949 µM, first compound 1 µM): 78%
- viability, T/C (second compound 0.00949 µM, first compound 3.16 µM): 77.9%
- viability, T/C (second compound 0.00949 µM, first compound 10 µM): 86.3%
- viability, T/C (second compound 0.03 µM, first compound 0.0316 µM): 46.4%
- viability, T/C (second compound 0.03 µM, first compound 0.1 µM): 49.5%
- viability, T/C (second compound 0.03 µM, first compound 0.316 µM): 51.5%
- viability, T/C (second compound 0.03 µM, first compound 1 µM): 49.2%
- viability, T/C (second compound 0.03 µM, first compound 3.16 µM): 54.2%
- viability, T/C (second compound 0.03 µM, first compound 10 µM): 51.6%
- viability, T/C (second compound 0.0949 µM, first compound 0.0316 µM): 48.5%
- viability, T/C (second compound 0.0949 µM, first compound 0.1 µM): 41.7%
- viability, T/C (second compound 0.0949 µM, first compound 0.316 µM): 43.7%
- viability, T/C (second compound 0.0949 µM, first compound 1 µM): 47.7%
- viability, T/C (second compound 0.0949 µM, first compound 3.16 µM): 45.7%
- viability, T/C (second compound 0.0949 µM, first compound 10 µM): 46.7%
- viability, T/C (second compound 0.3 µM, first compound 0.0316 µM): 37%
- viability, T/C (second compound 0.3 µM, first compound 0.1 µM): 39.2%
- viability, T/C (second compound 0.3 µM, first compound 0.316 µM): 39.2%
- viability, T/C (second compound 0.3 µM, first compound 1 µM): 37.3%
- viability, T/C (second compound 0.3 µM, first compound 3.16 µM): 37.7%
- viability, T/C (second compound 0.3 µM, first compound 10 µM): 39.5%
